Results on four molecules are retold here after patent US20230124862A1, “BISMUTH THIOL COMPOUNDS AND COMPOSITIONS AND METHODS OF TREATING MICROBIAL CO-INFECTIONS” (Microbion Corporation, priority 2020, published 2023).

Experiment [1] has as its system S. aureus. Put plainly: Broth microdilution MIC (Example 11). The experiment is classed as cell-based, Staphylococcus aureus. The following applies: Staphylococcus aureus, ATCC 29213 / MSSA, S. aureus MMX 101 (ATCC 29213), QC, MSSA.
Experiment [2] concerns Enterococcus spp. Put plainly: Broth microdilution MIC (Example 11). The experiment is classed as cell-based, E. faecalis, E. faecium.
In experiment [3] the test system is S. aureus. Particulars: S. aureus MMX 101 (ATCC 29213); cited from earlier work.
The subject of experiment [4] is S. pneumoniae. The following applies: S. pneumoniae MMX 6837 (ATCC 49619); cited from earlier work.
The subject of experiment [5] is P. aeruginosa. As to the kind of experiment: Broth microdilution MIC (Example 10). The following applies: initial MIC testing. The experiment is classed as cell-based, Pseudomonas aeruginosa. Background: In broth dilution the organism is exposed to a series of concentrations in liquid medium.
Experiment [6] concerns Burkholderia cepacia complex. The experiment is classed as cell-based, Burkholderia spp. Particulars: initial MIC testing.
Experiment [7] deals with P. aeruginosa. Put plainly: Checkerboard FIC/FICI assay. Type of experiment: cell-based, Pseudomonas aeruginosa. The following applies: during FIC testing.
Experiment [8] has as its system Burkholderia cepacia complex. As to the kind of experiment: Checkerboard FIC/FICI assay. The experiment is classed as cell-based, Burkholderia spp. Particulars: during FIC testing.
Experiment [9] deals with P. aeruginosa. Particulars: P. aeruginosa isolate 103; CLSI QC range in parenthesis; cited from earlier work.
In experiment [10] the test system is P. aeruginosa. Particulars: P. aeruginosa isolate 103; CLSI QC range in parenthesis; cited from earlier work. The source holds these as a separate data set.
Experiment [11] has as its system beta-hemolytic streptococci. Put plainly: Broth microdilution MIC (Example 11). Type of experiment: cell-based, S. pyogenes, S. agalactiae.
Experiment [12] deals with S. pneumoniae. As to the kind of experiment: Broth microdilution MIC (Example 11). The experiment is classed as cell-based, Streptococcus pneumoniae.

Values after ≈ are worked out from the molar mass of the structure shown. Where two headings read alike, the source gives them in different places.

Usually MIC stands for the smallest concentration in the dilution series that meets the test's criterion for growth inhibition.

For the molecule `CC[C@H]1OC(=O)[C@H](C)[C@@H](O[C@H]2C[C@@](C)(OC)[C@@H](O)[C@H](C)O2)[C@H](C)[C@@H](O[C@@H]2O[C@H](C)C[C@H](N(C)C)[C@H]2O)[C@](C)(O)C[C@@H](C)C(=O)[C@H](C)[C@@H](O)[C@]1(C)O` [Erythromycin], the MIC in [1] (read-out: MIC) was 0.5 µg/mL (≈ 0.681 µM); in [2] (E. faecalis MMX 8960, VRE, Lev^R Cip^R Ery^R, read-out: MIC), more than 64 µg/mL; in experiment [2] (E. faecalis MMX 8961, VRE, Lev^R Cip^R Ery^R, read-out: MIC) it was more than 64 µg/mL; in [2] (E. faecalis MMX 8962, VRE, Lev^R Cip^R Ery^R, read-out: MIC) it was more than 64 µg/mL; in experiment [2] (E. faecium MMX 485, VRE vanA, Lev^R Cip^R Ery^R, read-out: MIC) it was more than 64 µg/mL; in experiment [2] (E. faecium MMX 752, VRE vanA, Lev^R Cip^R Ery^R, read-out: MIC), more than 64 µg/mL. The “CLSI QC range of MIC” value is recorded as “(0.25-1) μg/mL” in experiment [3] and “(0.03-0.12) μg/mL” in experiment [4].

Take `NC[C@H]1O[C@H](O[C@H]2[C@H](O)[C@@H](O[C@H]3O[C@H](CO)[C@@H](O)[C@H](N)[C@H]3O)[C@H](N)C[C@@H]2N)[C@H](N)C[C@@H]1O` [TOB]: the MIC in [5] (P. aeruginosa isolate 103, QC strain) is 1 µg/mL (≈ 2.14 µM); in experiment [5] (P. aeruginosa isolate 1497 (TOB-R AMK-R, CIP-I, AZT-R, COL-R)), 16 µg/mL (≈ 34.2 µM); in experiment [5] (P. aeruginosa isolate 1530 (TOB-R, AMK-R, CIP-R)), 32 µg/mL (≈ 68.4 µM); in experiment [5] (P. aeruginosa isolate 1553 (TOB-R, AMK-R, CIP-R)), more than 256 µg/mL; in experiment [5] (P. aeruginosa isolate 6322 (MEM-R, TOB-R, AMK-R, CIP-R, AZT-R)), 128 µg/mL (≈ 274 µM); in [5] (P. aeruginosa isolate 6977 (MEM-I, TOB-R, CIP-R, AZT-I)) it was 128 µg/mL (≈ 274 µM). Further, the minimal inhibitory concentration (MIC) was 0.5 µg/mL (≈ 1.07 µM) in [5] (P. aeruginosa isolate 7745 (MEM-R, CIP-R, AZT-R)); 32 µg/mL (≈ 68.4 µM) in experiment [5] (P. aeruginosa isolate 7754 (MEM-R, TOB-R, CIP-R, AZT-I)); 1 µg/mL (≈ 2.14 µM) in [5] (P. aeruginosa isolate 7762 (MEM-I, CIP-I)); 0.5 µg/mL (≈ 1.07 µM) in experiment [5] (P. aeruginosa isolate 7871 (MEM-R, AZT-I)); 0.5 µg/mL (≈ 1.07 µM) in [5] (P. aeruginosa isolate 7874); 1 µg/mL (≈ 2.14 µM) in experiment [5] (P. aeruginosa isolate 7886 (MEM-R, CIP-R, AZT-R)). For the same molecule, the MIC in experiment [5] (P. aeruginosa isolate 8797 (MEM-R, TOB-R, AMK-R, CIP-R, AZT-R, COL-R)) is more than 256 µg/mL; in experiment [5] (P. aeruginosa isolate 8798 (MEM-R, TOB-R, AMK-R, CIP-R, AZT-R, COL-R)) it was 32 µg/mL (≈ 68.4 µM); in [5] (P. aeruginosa isolate 9108 (CIP-R, AZT-I)) it was 0.5 µg/mL (≈ 1.07 µM); in experiment [6] (B. cenocepacia isolate 0548 (CIP-R)) it was 64 µg/mL (≈ 137 µM); in experiment [6] (B. cenocepacia isolate 0813 (CPI-I)), 256 µg/mL (≈ 548 µM); in experiment [6] (B. cepacia isolate 0546), 64 µg/mL (≈ 137 µM). Besides, the MIC in experiment [6] (B. cepacia isolate 1793) stood at 64 µg/mL (≈ 137 µM); in experiment [6] (B. cepacia isolate 1794) it was 64 µg/mL (≈ 137 µM); in [6] (B. cepacia isolate 9040), 8 µg/mL (≈ 17.1 µM); in experiment [6] (B. multivorans isolate 1791) it was 64 µg/mL (≈ 137 µM); in [6] (B. multivorans isolate 5665 (CIP-I)), 64 µg/mL (≈ 137 µM); in experiment [6] (B. multivorans isolate 8952 (CIP-I)) it was 16 µg/mL (≈ 34.2 µM). Further, the MIC in [7] (isolate 103 (ATCC 25922), each agent tested alone for QC, one replicate) came to 1 µg/mL; in experiment [7] (isolate 6322), 128 µg/mL; in experiment [7] (isolate 6977) it was 128 µg/mL; in experiment [7] (isolate 7745), 0.5 µg/mL; in [7] (isolate 8798) it was 16 µg/mL; in [7] (isolate 9108) it was 0.5 µg/mL. Moreover, the MIC in [8] (B. cenocepacia isolate 0548) worked out at 32 µg/mL; in experiment [8] (B. cenocepacia isolate 0813), 256 µg/mL; in experiment [8] (B. cepacia isolate 0546), 32 µg/mL; in [8] (B. cepacia isolate 1793), 16 µg/mL. Also, the “CLSI QC range of MIC” value in [9] and in [10] was “(0.25-1) μg/mL” throughout.

Consider `CN[C@H](CC(C)C)C(=O)N[C@H]1C(=O)N[C@@H](CC(N)=O)C(=O)N[C@H]2C(=O)N[C@H]3C(=O)N[C@H](C(=O)N[C@H](C(=O)O)c4cc(O)cc(O)c4-c4cc3ccc4O)[C@H](O)c3ccc(c(Cl)c3)Oc3cc2cc(c3O[C@@H]2O[C@H](CO)[C@@H](O)[C@H](O)[C@H]2O[C@H]2C[C@](C)(N)[C@H](O)[C@H](C)O2)Oc2ccc(cc2Cl)[C@H]1O` [vancomycin, reference compound], for which the MIC in experiment [1] is 1 µg/mL (≈ 0.69 µM); in experiment [2], more than 64 µg/mL; in [2] (E. faecalis MMX 8960, VRE, Lev^R Cip^R Ery^R), more than 64 µg/mL; in experiment [2] (E. faecalis MMX 8962, VRE, Lev^R Cip^R Ery^R), more than 64 µg/mL; in experiment [2] (E. faecium MMX 485, VRE vanA, Lev^R Cip^R Ery^R), more than 64 µg/mL; in experiment [2] (E. faecium MMX 752, VRE vanA, Lev^R Cip^R Ery^R), more than 64 µg/mL. For the same molecule, the MIC in experiment [11] (Streptococcus pyogenes, S. pyogenes MMX 3820, ERY^R CLI^R) was found to be 0.5 µg/mL (≈ 0.345 µM); in [11] (Streptococcus pyogenes, S. pyogenes MMX 3919, ERY^R) it was 0.5 µg/mL (≈ 0.345 µM); in [11] (Streptococcus pyogenes, S. pyogenes MMX 3929, ERY^R CC^R), 0.5 µg/mL (≈ 0.345 µM); in experiment [11] (Streptococcus pyogenes, S. pyogenes MMX 5091, ERY^R CC^R) it was 0.5 µg/mL (≈ 0.345 µM). Moreover, the “CLSI QC range of MIC” value is “(0.5-2) μg/mL” in [3] and “(0.12-0.5) μg/mL” in experiment [4].

Take Penicillin: the MIC in [12] (S. pneumoniae MMX 880, Lev^R SXT^R CC^R Ery^R Pen^R) is 2 µg/mL; in [12] (S. pneumoniae MMX 937, Mem^R SXT^R CC^R Ery^R Per^R) it was 4 µg/mL; in experiment [12] (S. pneumoniae MMX 3959, CC^R Ery^R) it was 0.12 µg/mL; in experiment [12] (S. pneumoniae MMX 5440, Mem^R SXT^R CC^R Ery^R Pen^R), 4 µg/mL; in [12] (S. pneumoniae MMX 5445, Mem^R SXT^R CC^R Ery^R Pen^R) it was 4 µg/mL; in [12] (S. pneumoniae MMX 6837 (ATCC 49619), QC), 0.25 µg/mL. Also, the MIC in [12] (S. pneumoniae MMX 8133, Mem^R SXT^R CC^R Ery^R Pen^R) came to 4 µg/mL; in experiment [11] (S. agalactiae MMX 3741, ERY^R CC^R), 0.03 µg/mL; in experiment [11] (S. agalactiae MMX 3743, ERY^R CC^R) it was 0.06 µg/mL; in experiment [11] (S. agalactiae MMX 4077, ERY^R CC^R) it was 0.06 µg/mL; in [11] (S. agalactiae MMX 4079, ERY^R CC^R Pen^R MEM^R), 2 µg/mL; in experiment [11] (S. agalactiae MMX 4086, ERY^R CC^R) it was 0.06 µg/mL. For the same molecule, the MIC in experiment [11] (S. pyogenes MMX 3068, Ery^R) is not above 0.008 µg/mL; in [11] (S. pyogenes MMX 3820, ERY^R CLI^R), not above 0.008 µg/mL; in experiment [11] (S. pyogenes MMX 3919, ERY^R), not above 0.008 µg/mL; in [11] (S. pyogenes MMX 3929, ERY^R CC^R), not above 0.008 µg/mL; in [11] (S. pyogenes MMX 5091, ERY^R CC^R) it was not above 0.008 µg/mL. Besides, the “CLSI QC range of MIC” value in experiment [4] is given as “(0.25-1) μg/mL”.
